Results on 2 compounds are retold here after ChEMBL document CHEMBL1122466, “Synthesis of partially modified retro-inverso substance P analogues and their biological activity” (1983).

Residues, ends and D or L forms follow the SMILES beside them.

Experiment [1] is filed under the species Cavia porcellus. Nature of the experiment: Relative potency in guinea pig ileum assay. The experiment is classed as functional.
For experiment [2], the species on record is Cavia porcellus. Nature of the experiment: ED50 represents the concentration of the agonist in the organ bath corresponding to 50% of the maximal measured spasmogenic effect. In kind it is functional.

In the experiment filed under Cavia porcellus [1], `CSCC[C@@H](NC(=O)[C@H](CC(C)C)NC(=O)CC(=O)N[C@H](Cc1ccccc1)NC(=O)[C@@H](Cc1ccccc1)NC(=O)[C@@H]1CCC(=O)N1)C(N)=O` gave a Relative potency of 22. The ED50 in the experiment filed under Cavia porcellus [2] turned out to be 0.9 nM. In the case of `CSCC[C@H](NC(=O)[C@H](CC(C)C)NC(=O)CNC(=O)[C@H](Cc1ccccc1)NC(=O)[C@@H](Cc1ccccc1)C(=O)N[C@@H]1CCC(=O)N1)C(N)=O` (HELM PEPTIDE1{[O=C1CC[C@@H](NC(=O)[C@H](Cc2ccccc2)C(=O)[*:2])N1].F.G.L.M.[am]}$$$$V2.0), in the experiment filed under Cavia porcellus [1], the Relative potency was less than 0.01.
